Tested on: α-galactosidase and β-galactosidase
Experiment: Test in the presence of glycosidase (resistance to galactosidases, monitored by 19F NMR)
Assay type: in vitro ADME
Details: phosphate buffer 0.07 M, pH 7, 37° C.; α-galactosidase (5 units) and β-galactosidase (6.25 units); samples after 24, 48, 72, 96 and 120 hours
Protocol: Indeed, it is known that the following compounds undergo enzymatic break-down (FIG. 25).
The protocol used is as follows (FIG. 26)
A solution of compound 17a1 (17.72 mg) in water (500 μl) is added to a solution of phosphate buffer (0.07 M; pH 7, 4 ml) containing α-galactosidase (5 units) and β-galactosidase (6.25 units) at 37° C. The reaction is monitored by ^19F NMR. Samples are taken after 24, 48, 72, 96 and 120 hours.

Structure (SMILES): C[C@H](NC(=O)[C@H](C)NC(=O)[C@@H](N)CCCCNC(=O)[C@H](F)[C@]1(O)O[C@H](CO)[C@H](O)[C@H](O)[C@H]1O)C(=O)O [Compound 17a1]
- resistance to glycosidases / stability (change of the starting product by 19F NMR): No change is observed and the starting product remains

Source: patent US20090318678A1, “Stable C-Glycoside Sugar and C-Glycoconjugate Mimetics, Method for preparing same and uses Thereof in Particular in Cosmetics and Drugs” (TFCHEM, priority 2006, published 2009)
